US6399370B1, “Compositions and methods for use of defensin” (priority 1996, dated 2002)
Bridge positions count the residues as written; N and C are the ends. Ends that are not written are not given here.

How the values were obtained:
Escherichia coli [1] = assay: Broth culture assay of synthetic hBD-1 (optical density); assay type: cell-based; details: 500 μg synthetic hBD-1, 1×10^4 bacterial cells in 200 μl 0.25×LB, 7 hours, background subtracted; untreated 0.127
Experimental: A broth culture assay was also used to assess the antimicrobial activity of hBD-1 directed against Escherichia coli. In this instance, 1×10^4 bacterial cells in 200 μl of 0.25×LB broth were incubated at 37DC in the presence or absence of 500 μg of synthetic hBD-1. After 7 hours, the optical density at 630 nm of the cultures was recorded as a measure of bacterial growth. After subtraction of background due to growth medium, the average optical density of the untreated cultures was 0.127 whereas those containing hBD-1 was 0.004, indicating nearly complete suppression of bacterial growth.

Pseudomonas aeruginosa [2] = assay: Colony count killing and salt dependence assay of synthetic hBD-1; assay type: cell-based
Experimental: FIG. 7 is a graph depicting salt sensitivity of hBD-1 antimicrobial activity against Pseudomonas aeruginosa. Synthetic hBD-1 was incubated with 5×10^4 colony forming units of P. aeruginosa in 100 μl of 10 mM phosphate buffer (pH 7.4) and the indicated concentrations of NaCl. Reactions were then incubated at 37° C. for 20 minutes. Serial dilutions were plated and colony counts were performed the following day.
(§1) Essentially, for assays involving Pseudomonas and Escherichia coli, approximately 5×10^4 bacterial cells were exposed to about 50 μg to 500 μg of synthetic hBD-1 in 10 mM phosphate buffer (pH 7.4) in a reaction volume of 100 μl. Samples were incubated at 37° C. for 20 minutes and were then diluted to 1 ml total volume with the corresponding test buffer. A volume of 100 μl of this solution and of two 10-fold serial dilutions thereof, were plated and incubated overnight at 37° C. to facilitate colony formation.
Salt dependence of antibiotic activity was measured essentially as described for α-defensins (Lehrer et al., 1983, supra; Selsted et al., 1984, supra). Briefly, approximately 5×10^4 bacterial cells were exposed to 50 μg of synthetic hBD-1 in 10 mM phosphate buffer (pH 7.4) containing varying concentrations of NaCl in a reaction volume of 100 μl. Reactions were incubated at 37° C. for 20 minutes and were then diluted to 1 ml total volume with the corresponding test buffer. […]

E. coli = assay: Colony count killing assay of synthetic hBD-1; assay type: cell-based, Escherichia coli; details: synthetic hBD-1, low NaCl
Experimental: as §1

Escherichia coli [3] = assay: Antibiotic activity of extracts of 293 cells transfected with hBD-1 cDNA; assay type: cell-based; details: extracts of kidney cells transfected with full length hBD-1 cDNA; mock transfected did not
Experimental: (§2) Human embryonal kidney cells (293) (ATCC CRL 1573) grown in the absence of antibiotics were transfected with the pCMV mammalian reporter vector (Clontech) containing the full length hBD-1 cDNA. Transfected and control mock transfected cells were harvested at 24 to 48 hours postransfection, pelleted by centrifugation, resuspended in 10 mM phosphate buffer (pH 7.4) and lysed by brief sonication. Cell debris was removed by centrifugation and the resulting supernatant was tested for antibiotic activity. Approximately 10^3 or 10^4 bacteria were exposed to cell extracts for 2 hours in 10 mM phosphate buffer (pH 7.4) and cell viability was measured by plating several dilutions and counting colonies the following day.

Pseudomonas aeruginosa [4] = assay: as above; assay type: cell-based; details: extracts of kidney cells transfected with full length hBD-1 cDNA; mock transfected did not
Experimental: as §2

Staphylococcus aureus = assay: as above; assay type: cell-based; details: extracts of kidney cells transfected with full length hBD-1 cDNA; mock transfected did not
Experimental: as §2

Escherichia coli D31 = assay: Diffusion and liquid broth assays of lysates of mBD-1 transfected cells, incl. salt and pH dependency; assay type: cell-based
Experimental: (§3) FIG. 14 is a series of graphs depicting the results of antibacterial assays on mBD-1. In FIGS. 14A, 14B and 14C there is shown the results of antibacterial liquid broth coincubation assays. E. coli (FIG. 14A), S. aureus (FIG. 14B) and P. aertiginosa (FIG. 14C) were added at a concentration of 10^3 to 10^4 cfu to 50 μl of lysates obtained from cells transfected with vector containing full length mBD-1 cDNA (empty circles) or cells transfected with the vector alone (filled circles). Each circle shown represents the results of an individual transfection experiment. In FIG. 14D there is shown the salt sensitivity of the antimicrobial activity of mBD-1. Extracts of mBD-1 transfected cells were incubated with 5×10^4 colony-forming units of E. coli D31 in 100 mM phosphate buffer (pH 7.4) and the indicated concentrations of NaCl. After incubation at 37° C. for 1 hour, serial dilutions of bacteria were plated and colonies were counted the following day.
To test the antibacterial activity of mBD-1, lysates obtained from cells transfected with mBD-1 cDNA positioned in a transfection vector were analyzed. A clinical isolate of Staphylococcus aureus, Escherichia coli D31 (Steiner et al., 1981, Nature 292:246-248), and a clinical isolate of Pseudomonas aeruginosa were used as test organisms in both diffusion assays and liquid broth assays. […]
(§4) Antibacterial liquid broth assays were performed as previously described for α-defensins (Steiner et al., 1981, Nature 292:246-248). […] Cell viability was measured by plating several dilutions and counting colonies the following day. […]
To analyze the salt dependency of the activity of mBD-1 against E. coli D31, NaCl was added to aliquots of the agarose solution to obtain final concentrations of NaCl of 50 mM, 100 mM, 200 mM and 500 mM. The exact concentration of NaCl in the solutions was measured using Na or Cl sensitive electrodes (Microelectrodes). […]

[5] = system: Pseudomonas aeruginosa (clinical isolate); assay: Diffusion and liquid broth assays of lysates of mBD-1 transfected cells; assay type: cell-based; details: lysates of SW 13 cells transfected with mBD-1 cDNA
Experimental: as §3
(§5) To test the antibacterial activity of mBD-1, lysates obtained from cells transfected with mBD-1 cDNA positioned in a transfection vector were analyzed. […]
as §4

[6] = system: Staphylococcus aureus (clinical isolate); assay: as above; assay type: cell-based; details: lysates of SW 13 cells transfected with mBD-1 cDNA
Experimental: as §3, §5, §4

hBD-1: human β-defensin 1; synthetic mature peptide with disulfide bridges Cys5-Cys34, Cys12-Cys27, Cys17-Cys35; also tested as extracts of cDNA-transfected cells (DHYNCVSSGGQCLYSACPIFTKIQGTCYRGKAKCCK; disulfide 12-27, 17-35, 5-34; UniProt P60022 33-68, looked up)
average optical density at 630 nm of cultures (bacterial growth) (Escherichia coli [1]): 0.004 | hBD-1 concentrations at which bacterial killing was observed (Pseudomonas aeruginosa [2]; low NaCl, 10 mM phosphate buffer pH 7.4, 37° C., 20 minutes): 60 to 500 µg/mL | bactericidal activity (Pseudomonas aeruginosa [2]; synthetic hBD-1, low NaCl): potent bactericidal activity | bactericidal activity (E. coli): potent bactericidal activity | antibiotic activity of transfected cell extracts (Escherichia coli [3]): exhibited antibiotic activity | antibiotic activity of transfected cell extracts (Pseudomonas aeruginosa [4]): exhibited antibiotic activity | antibiotic activity of transfected cell extracts (Staphylococcus aureus): exhibited antibiotic activity

B1: mBD-1: murine β defensin, tested as lysates of SW 13 cells transfected with full length mBD-1 cDNA (protein)
chain: MKTHYFLLVMICFLFSQMEPGVGILTSLGRRTDQYKCLQHGGFCLRSSCPSNTKLQGTCKPDKPNCCKS
antimicrobial activity of lysates (Escherichia coli D31; lysates of SW 13 cells transfected with mBD-1 cDNA, diffusion and liquid broth assays): active | antimicrobial activity in acidic pH (Escherichia coli D31; lysates of mBD-1 transfected cells, acidic pH): substantially diminished and lost | antimicrobial activity in high concentrations of NaCl (Escherichia coli D31; lysates of mBD-1 transfected cells, high NaCl): substantially diminished and lost | antimicrobial activity of lysates [5]: active | antimicrobial activity of lysates [6]: active
